Measurements as given in article PMC6095626, “Screening of the Pathogen Box for inhibitors with dual efficacy against Giardia lamblia and Cryptosporidium parvum” (PLoS Neglected Tropical Diseases, 2018).

Legend:
[1] = tested on: G. lamblia trophozoites (luciferase expressing, WBC6); experiment: microbe, parasite or virus in culture; format: cell-based, Giardia lamblia; details: for Giardia (16 uM) Mean % inhibition: initial Pathogen Box screen, single concentration 16 µM, inhibition compared to DMSO wells
Procedure: Trophozoites were harvested by chilling cultures on ice for 30 minutes and plated by adding 150 μL per well at a concentration of 250,000 cells/mL. Metronidazole (Sigma, St. Louis, MO) was used as a control and was serially diluted 1:2 from 40 μM to 0.04 μM and 150 μL was added to the 150 μL of the G. lamblia trophozoites. Plates were covered in plastic low-evaporation lids, sealed in individual anaerobic BD GasPak Bio-Bags (Becton Dickinson, San Jose, CA) and incubated at 37 °C for 24 hours. […] A duplicate plate was concurrently set up and assayed using a MOXI Z Mini Automated Cell Counter Kit (Orflo, Ketchum, ID). Results obtained from the bioluminescence assay and the MOXI counter data were compared to evaluate their correlation to each another. Albendazole (Sigma, St. Louis, MO), an alternative giardiasis therapeutic, was assayed in concentrations from 4 μM to 0.004 μM with only the luciferase expressing G. lamblia cells. […]

[2] = tested on: C. parvum (UGA1 Nluc expressing strain in HCT-8 cells); experiment: microbe, parasite or virus in culture; format: cell-based, Cryptosporidium parvum; details: for Crypto (10 uM) Mean % inhibition: initial Pathogen Box screen, single concentration 10 µM, inhibition compared to DMSO wells
Procedure: Growth inhibition and EC50 determination assays were performed using UGA1 Nluc expressing C. parvum strain in HCT-8 cells (ATCC^©, Manassas, VA) as previously described. HCT-8 cells were inoculated onto 96-well plates and allowed to grow for 48 hours to 90–100% confluence and then treated with single concentration (10 μM) or serially diluted compounds prior to oocyst infection. C. parvum oocysts were incubated for 10 minutes in 10% bleach at room temperature and then washed with DPBS. […] The cell monolayers were lysed for 1 hour before adding Nano-Glo® luciferase reagent (Promega, Madison, WI), and measuring relative luminescence units (RLU) in an EnVision Plate Reader (Perkin Elmer, Waltham, MA). Several parameters, including reproducibility and reliability, were previously evaluated to optimize this assay for low and high-throughput (HTP) screening of small molecule compounds against C. parvum. EC50 values were calculated using Prism 7 software (GraphPad Software, San Diego, CA).
C. parvum screening against the Pathogen Box compounds was performed as previously described starting at a concentration of 10 μM [23].

COc1ccccc1OCCCCn1c(C2CC2)nc2ccccc21 [MMV676474]
Giardia (16 uM) Mean % inhibition [1]: 3.27%
Crypto (10 uM) Mean % inhibition [2]: X* (Mean or standard deviation are negative but not significantly different from the control to be a growth promoter)

CN1CCN(S(=O)(=O)c2ccc(-c3ccc4c(Nc5ncc(Cl)cn5)ccnc4c3)cc2)CC1 [MMV688283]
G. lamblia inhibition of parasite growth in the initial screen ([1]; 16 μM, 24 hours): ≥ 95%
Giardia (16 uM) Mean % inhibition [1]: 95%
G. lamblia EC50 ([1]; luciferase expressing G. lamblia trophozoites, 24 hours, D-luciferin bioluminescence read-out): not potent
Crypto (10 uM) Mean % inhibition [2]: 89%

NS(=O)(=O)c1cccc(-c2ccc3ncc(N4CCOCC4)nc3c2)c1 [MMV023860]
Giardia (16 uM) Mean % inhibition [1]: 27%
Crypto (10 uM) Mean % inhibition [2]: 89%

COc1cc(Br)cc2cc(C(=O)Nc3cccc(C(F)(F)F)c3)c(=O)oc12 [MMV688891]
Giardia (16 uM) Mean % inhibition [1]: 7.41%
Crypto (10 uM) Mean % inhibition [2]: 51%

Cc1cc2ccccc2n1CC(=O)N1CC(C(=O)N2CCCCC2)Oc2ccccc21 (centres unmarked) [MMV020520]
Giardia (16 uM) Mean % inhibition [1]: 6.36%
Crypto (10 uM) Mean % inhibition [2]: 68%

CCc1nc2ccc(C(=O)NCc3ccc4c(c3)OCO4)cn2c1N(C)Cc1cccs1 [MMV407539]
Giardia (16 uM) Mean % inhibition [1]: 17%
Crypto (10 uM) Mean % inhibition [2]: 59%

CN(C(=O)c1cc2c(-c3cncnc3)cccc2[nH]1)c1ccccc1 [MMV024443]
Giardia (16 uM) Mean % inhibition [1]: X* (Mean or standard deviation are negative but not significantly different from the control to be a growth promoter)
Crypto (10 uM) Mean % inhibition [2]: 87%

Cc1cc(NCC(C)C)c2[nH]nc(-c3ccccc3)c2n1 [MMV021375]
Giardia (16 uM) Mean % inhibition [1]: 62%
Crypto (10 uM) Mean % inhibition [2]: X* (Mean or standard deviation are negative but not significantly different from the control to be a growth promoter)

O=C(Nc1nnc(-c2ccc(Cl)cc2)o1)c1cccc(C(F)(F)F)c1 [MMV102872]
Giardia (16 uM) Mean % inhibition [1]: 35%
C. parvum cell growth inhibition in the initial screen ([2]; 10 μM, 48 hours): ≥ 95%
EC50 ([2]; Nluc C. parvum in HCT-8 cells, 48 hours, read-out: C. parvum EC50): 140 nM
Crypto (10 uM) Mean % inhibition [2]: 95%

Cc1ccccc1C(=O)N1NC(=Nc2ccccc2)SC1(C)C [MMV688771]
Giardia (16 uM) Mean % inhibition [1]: 51%
Crypto (10 uM) Mean % inhibition [2]: 82%

CCCCN(CCCC)c1c(C#N)cc(S(=O)(=O)Nc2ccccc2)cc1C#N [MMV688467]
Giardia (16 uM) Mean % inhibition [1]: 60%
Crypto (10 uM) Mean % inhibition [2]: X* (Mean or standard deviation are negative but not significantly different from the control to be a growth promoter)

CN1CCN(c2cc(-c3ccc(F)cc3)nc(-c3ccncc3)n2)CC1 [MMV688888]
Giardia (16 uM) Mean % inhibition [1]: 62%
Crypto (10 uM) Mean % inhibition [2]: 84%

CCn1cnc2c(Nc3cc(F)cc(F)c3)nc(C#N)nc21 [MMV676881]
Giardia (16 uM) Mean % inhibition [1]: 9%
Crypto (10 uM) Mean % inhibition [2]: 53%

COc1cccc2c(C)nc(N=C(N)N)nc12 [MMV000907]
Giardia (16 uM) Mean % inhibition [1]: 68%
Crypto (10 uM) Mean % inhibition [2]: 67%

O=C(CN1CCOCC1)Nc1ccc2ncnc(Nc3ccc(OCc4cccc(F)c4)c(Cl)c3)c2c1 [MMV688274]
Giardia (16 uM) Mean % inhibition [1]: 26%
Crypto (10 uM) Mean % inhibition [2]: 47%

Cc1noc(C)c1C(=O)N1CCCC(c2[nH]c3c(C)cccc3c2-c2ccncc2)C1 (centres unmarked) [MMV020623]
Giardia (16 uM) Mean % inhibition [1]: X* (Mean or standard deviation are negative but not significantly different from the control to be a growth promoter)
Crypto (10 uM) Mean % inhibition [2]: 43%

COc1nc2ccc(Br)cc2cc1[C@@H](c1ccccc1)[C@@](O)(CCN(C)C)c1cccc2ccccc12 [MMV689758]
Giardia (16 uM) Mean % inhibition [1]: 62%
Crypto (10 uM) Mean % inhibition [2]: 68%

CS(=O)(=O)c1ccc(C(=O)N(CC2CCCO2)c2nc3ccccc3s2)cc1[N+](=O)[O-] (centres unmarked) [MMV688761]
Giardia (16 uM) Mean % inhibition [1]: 63%
Crypto (10 uM) Mean % inhibition [2]: 77%

CC1(C)OB(O)c2ccc(C3=NOC(c4cc(Cl)c(F)c(Cl)c4)(C(F)(F)F)C3)cc21 (centres unmarked) [MMV687775]
Giardia (16 uM) Mean % inhibition [1]: X* (Mean or standard deviation are negative but not significantly different from the control to be a growth promoter)
Crypto (10 uM) Mean % inhibition [2]: 56%

CNC(=O)c1cc(S(=O)(=O)N2CCN(c3ccccn3)CC2)cs1 [MMV020136]
Giardia (16 uM) Mean % inhibition [1]: X* (Mean or standard deviation are negative but not significantly different from the control to be a growth promoter)
Crypto (10 uM) Mean % inhibition [2]: X* (Mean or standard deviation are negative but not significantly different from the control to be a growth promoter)

CC1=Nc2ccc(Cl)cc2C(c2ccccc2)N1CCNC(=O)CN(C)C (centres unmarked) [MMV688410]
Giardia (16 uM) Mean % inhibition [1]: 20%
Crypto (10 uM) Mean % inhibition [2]: 62%

CNc1cc(C)nc(C2CN(C(=O)c3n[nH]c4ccccc34)CCO2)c1 (centres unmarked) [MMV689709]
Giardia (16 uM) Mean % inhibition [1]: 19%
Crypto (10 uM) Mean % inhibition [2]: 45%

COc1cc(C2=NCCN2)ccc1-c1cn(-c2cccc(C3=NCCN3)c2)nn1 [MMV688407]
Giardia (16 uM) Mean % inhibition [1]: 50%
Crypto (10 uM) Mean % inhibition [2]: X* (Mean or standard deviation are negative but not significantly different from the control to be a growth promoter)

N#Cc1nc(-c2ccccc2)oc1S(=O)(=O)c1ccc(Cl)cc1 [MMV676412]
Giardia (16 uM) Mean % inhibition [1]: 49%
Crypto (10 uM) Mean % inhibition [2]: 77%

O=C(Nc1nc(-c2ccccn2)cs1)c1cncn1-c1ccccc1 [MMV676512]
Giardia (16 uM) Mean % inhibition [1]: 10%
Crypto (10 uM) Mean % inhibition [2]: 93%

c1ccc(Oc2ccc(-c3cncc(-c4ccc5[nH]ccc5c4)n3)cc2)cc1 [MMV688178]
Giardia (16 uM) Mean % inhibition [1]: X* (Mean or standard deviation are negative but not significantly different from the control to be a growth promoter)
Crypto (10 uM) Mean % inhibition [2]: 59%

CCc1nn(C)c(C(=O)NCc2ccc(Oc3ccc(C)cc3)cc2)c1Cl [MMV688934]
Giardia (16 uM) Mean % inhibition [1]: 72%
Crypto (10 uM) Mean % inhibition [2]: 88%

O=C(Nc1ccc(N2CCNCC2)nc1)c1oc(-c2ccccc2)nc1C(F)(F)F [MMV024937]
Giardia (16 uM) Mean % inhibition [1]: 7%
Crypto (10 uM) Mean % inhibition [2]: X* (Mean or standard deviation are negative but not significantly different from the control to be a growth promoter)

CCOc1ccc(OCC(=O)Nc2cc(C)cc(C)c2)cc1 [MMV676470]
Giardia (16 uM) Mean % inhibition [1]: 12%
Crypto (10 uM) Mean % inhibition [2]: X* (Mean or standard deviation are negative but not significantly different from the control to be a growth promoter)

Cc1nc2ccccn2c1C(=O)NCc1ccc(Cl)cc1 [MMV012074]
Giardia (16 uM) Mean % inhibition [1]: 14%
Crypto (10 uM) Mean % inhibition [2]: 57%

CCCCS(=O)(=O)Nc1ccc2cnn(C)c2c1 [MMV687145]
Giardia (16 uM) Mean % inhibition [1]: 56%
Crypto (10 uM) Mean % inhibition [2]: 32%

CCN(CC)S(=O)(=O)c1ccc(Cl)c(C(=O)Nc2ccc3nc(C)sc3c2)c1 [MMV019721]
Giardia (16 uM) Mean % inhibition [1]: 15%
Crypto (10 uM) Mean % inhibition [2]: 82%

Cn1ccnc1CNCCS(=O)(=O)c1cccc(Nc2ccc(-c3cccc(F)c3)cn2)c1 [MMV688466]
Giardia (16 uM) Mean % inhibition [1]: 28%
Crypto (10 uM) Mean % inhibition [2]: 43%

Cc1cc(C2=NOC(c3cc(Cl)c(F)c(Cl)c3)(C(F)(F)F)C2)ccc1C(=O)NCc1ccc2c(c1)C(C)(C)OB2O (centres unmarked) [MMV687776]
Giardia (16 uM) Mean % inhibition [1]: 27%
Crypto (10 uM) Mean % inhibition [2]: 83%

O=C(C(Cc1c[nH]c2ccccc12)NS(=O)(=O)c1ccc(Cl)cc1)N1CCCCC1 (centres unmarked) [MMV085210]
Giardia (16 uM) Mean % inhibition [1]: X* (Mean or standard deviation are negative but not significantly different from the control to be a growth promoter)
Crypto (10 uM) Mean % inhibition [2]: X* (Mean or standard deviation are negative but not significantly different from the control to be a growth promoter)
